The numbers were not newly measured in patent US8383697B2 (priority 2009, dated 2013), which cites them from elsewhere.

Data set [1] has as its system rats. The following applies: in vivo.
For data set [2] the following is noted: in vivo.

Regarding `CC(C)(C)OOC(C)(C)C` [Initiator X, tert-butyl peroxide], the “Rat Oral LD50” value in data set [1] is listed as 25,000 mg/kg.

As for `CC(C)(C)OOC(=O)c1ccccc1` [Initiator XI, tert-butyl peroxybenzoate], the “Rat Oral LD50” value in data set [1] is 4,160 mg/kg.

Turning to `O=C(OOC(=O)c1ccccc1)c1ccccc1` [Initiator VII, benzoyl peroxide], in data set [1], the “Rat Oral LD50” value is 7,710 mg/kg.

In the case of `CCCCCCCCCCCC(=O)OOC(=O)CCCCCCCCCCC` [Initiator VIII, lauroyl peroxide], in data set [1], the “Rat Oral LD50” value is 10,000 mg/kg.

Turning to `CCO` [ethanol], in data set [2], the LD50 (commonly the dose expected to kill half of the subjects tested) is reported as 7060 mg/kg.
